Results as given in patent publication US20210318306A1, “Compositions for and Methods of Neutralizing Lipopolysaccharide Toxicity and Methods of Identifying the Same” (priority 2020, published 2021).
Values joined by “and” are separate entries in the source; they are usually repeats but may differ in a detail not shown here. Identical values can stand only once. “Also recorded” adds a separate entry of the source.

Legend:
Type in all cases: cell-based, human
HEK-TLR4 cells = assay: P. gingivalis LPS-induced cytokine secretion by HEK-TLR4 cells, Luminex 5-plex magnetic bead panel (Example 2)
Description: Commercially available HEK-Blue TLR4 cells (Invitrogen) are recombinant HEK 293 cells that have been transformed with DNA that encodes TLR4 that is expressed and present on the cell surface. HEK-Blue TLR4 cells are grown ion culture and used can be used in experimental assays to identify test compositions that modulate inflammation pathways stimulated by TLR4-LPS interaction.
Initial for LPS and zinc-containing starting solutions were made as follows. An LPS starting solution was prepared as follows: a […] solution of LPS was prepared using 2 μl of 1 mg/ml LPS and 10 ml media. Multiple zinc starting solutions were each prepared using media as diluent: a) 20 mM zinc oxide, b) 2 mM zinc oxide, c) 20 mM zinc citrate, d) 2 mM zinc citrate, e) 20 mM of a composition containing a 2:1 mixture of zinc oxide and zinc citrate and f) 2 mM of a composition containing a 2:1 mixture of zinc oxide and zinc citrate. The starting solutions were used to prepare various test samples.
In some embodiments, control assays include “Untreated”, in which eight Zinc test samples without LPS were made: […], 10 mM zinc oxide+zinc citrate, 1 mM zinc oxide+zinc citrate, 10 mM zinc oxide+zinc citrate+arginine and 1 mM zinc oxide+zinc citrate+arginine, The test samples without LPS were prepared by diluting the zinc starting solutions with equal parts media. Eight test samples with LPS were made: […], […], […], […], 10 mM zinc oxide+zinc citrate LPS, 1 mM zinc oxide+zinc citrate LPS, 10 mM zinc oxide+zinc citrate+arginine LPS and 1 mM zinc oxide+zinc citrate+arginine LPS. The test samples with LPS were prepared by diluting the zinc starting solutions with equal parts LPS starting solution.
Cells were grown to 70-80% confluent in a 96 well plate. 100 uL of a test sample was added to a well. Cells with test sample were incubated overnight. Media was collected from each well and transferred to a corresponding well in a 96-well plate. Assays to measure proinflammatory cytokines including IL-8 secretion were performed for each well.
Inflammation markers in supernatants collected from HEK-Blue cells co-incubated with Zinc and Zinc+LPS were quantified using Luminex Magpix instrument (MAGPIX-XPON42) and human 5-plex cytokine/chemokine Magnetic bead panel (Millipore HCYTOMAG-60K). The human 5-plex cytokine/chemokine Magnetic bead panel quantifies TNF-α, IL-6, IL-8, IL-1β and GM-CSF.
The Luminex Kit Procedure outlined in the instruction manual for each separate Luminex kit was performed on the supernatants collected from the HEK-Blue cells co-incubated with Zinc test solutions without LPS and Zinc test solutions plus LPS. Quality controls in range for the specified analytes were performed to ensure levels were within the acceptable range.
To run the Luminex Test, all necessary calibration and verification procedures as outlined by the MagPix and xPonent softwares were completed and the appropriate protocol for the assay was selected. The standards were verified to be correct and complete the plate layout of samples was verified. […] The “Avg. Result” was identified in the results generated.
Experiments were conducted to identify compositions that inhibit P. gingivalis LPS-induced IL-8, TNFα, GM-CSF, IL-1β and IL-6 by HEK-TLR4 cells. HEK-TLR4 cells in 96 well plates were contacted with 100 μl samples. IL-8, TNFα, GM-CSF, IL-1β and IL-6 were detected as described above.

HEK-Blue hTLR4 cells [1] = assay: IL-8 dose response in HEK-Blue hTLR4 cells with P.g. LPS 1 μg/ml and 3X-24X dilutions of simple solutions (Example 4); conditions: for IL-8 Concentration, replicate: listed as ZnCitrate
Description: (§1) HEK-Blue hTLR4 cells (Invivogen, cat #hkb-htlr4) were cultured in a DMEM culture medium supplemented with 10% FBS and 1% penstrep at 37° C. with 5% CO2. LPS from Porphyromonas gingivalis (P.g. LPS; Invivogen, cat #tlrl-pglps and cat #tlrl-ppglps) activates TLR4 receptor and downstream inflammation in HEK-Blue hTLR4 cells. P.g. LPS is co-incubated with HEK-Blue hTLR4 cells in the absence or presence of the simple solutions. Standard and ultrapure P.g. LPS were both used due to ultrapure being a specific ligand for the TLR4 receptor while standard LPS is a ligand for both TLR2 and TLR4.
(§2) The simple solutions a) Zinc Oxide (ZnO), b) Zinc Citrate (ZnCitrate), c) Zinc Oxide+Zinc Citrate (Dual Zinc; DZ), d) Dual Zinc+Arginine (DZA, zinc oxide, zinc citrate and arginine), and e) L-Arginine (Arg) were diluted at different concentrations with culture medium.
2) experiments using 3×, 6×, 12×, and 24× dilution fold of the simple solutions (see Table 6 below).
(§3) HEK-Blue hTLR4 cells were plated in 96-well plates and grown until confluent at 37° C. and 5% CO2 in HEK-blue selection media (DMEM with 10% FBS, 1% penicillin-streptomycin, and antibiotics for HEK-blue selection (Invivogen, cat #hb-sel)). Cells were co-incubated overnight with varying concentrations of different zinc actives as well as arginine and stimulated with either 0.1 μg/mL standard P. gingivalis LPS or 1 μg/mL ultrapure P. gingivalis LPS. Cell supernatants were collected for human inflammation cytokine panels using Multiplex and ELISA analysis.
(§4) Multiplex analysis was performed using the MILLIPLEX MAP Human Cytokine/Chemokine Magnetic Bead Panel—Immunology Multiplex Assay for IL-1, IL-6, IL-8, TNFα, and GM-CSF (Millipore Sigma, cat #HCYTOMAG-60K).
In order to understand the role of Arginine in the inhibition of LPS induced inflammation, a dose response experiment was performed using ultrapure P.g. LPS, which only specifically targets TLR4 receptor, in order to maximize the activation of NF-kB and expression of IL-8.
The testing samples were prepared as the stock simple solutions. […] The first serial dilution was made 3 times with water, a dilution factor simulating dilution of toothpastes while brushing. Additional serial dilutions were made by 2-fold of the first dilution to study dose response effect.

HEK-Blue hTLR4 cells [2] = assay: IL-8 in HEK-Blue hTLR4 cell supernatants with standard P.g. LPS and simple solutions at 1 mM vs 10 mM total zinc (Example 4); conditions: for IL-8 Concentration, replicate: listed as ZnCitrate
Description: as §1, §2
1) experiments using 1 mM vs 10 mM total zinc; and
as §3, §4
Testing was performed using total zinc concentrations to normalize the amount the zinc applied in the cell culture medium during co-incubation. Two concentrations of total zinc ion are based on the potential amount of zinc retained on the mouth soft tissue surface.

[3] = 300 ppm with 0.1μ/ml P. gingivalis LPS
[4] = 600 ppm with 0.1μ/ml P. gingivalis LPS
[5] = P. gingivalis LPS, 300 and 600 ppm, listed as zinc citrate
[6] = 3X dilution of stock simple solution (Table 6) with P.g. LPS (1 μg/ml)
[7] = 6X dilution of stock simple solution (Table 6) with P.g. LPS (1 μg/ml)
[8] = 12X dilution of stock simple solution (Table 6) with P.g. LPS (1 μg/ml)
[9] = 24X dilution of stock simple solution (Table 6) with P.g. LPS (1 μg/ml)
[10] = 1 mM total zinc with standard P.g. LPS (0.1 μg/ml)
[11] = 10 mM total zinc with standard P.g. LPS (0.1 μg/ml)

## O=C([O-])CC(O)(CC(=O)[O-])C(=O)[O-].O=C([O-])CC(O)(CC(=O)[O-])C(=O)[O-].[Zn+2].[Zn+2].[Zn+2] [ZnC, zinc citrate]
HEK-TLR4 cells; [3]
  GM-CSF (raw data, single replicate): <3.2 pg/ml (3×) and 0.633 pg/ml
  IL-1β (raw data, single replicate): 0.4044 pg/mL and 0.5186 pg/mL and 0.1227 pg/mL and 1.331 pg/mL
  IL-6 (raw data, single replicate): <3.2 pg/ml (3×) and 0.5932 pg/ml
  IL-8 (average result): 395.2 pg/mL
  IL-8 (raw data, single replicate): 364.5 pg/mL and 386.8 pg/mL and 285.4 pg/mL and 544.1 pg/mL
  TNF-α (average result): 3.857 pg/mL
  TNFα (raw data, single replicate): 3.113 pg/mL and 2.696 pg/mL and 2.325 pg/mL and 7.294 pg/mL
HEK-TLR4 cells; 300 ppm, without LPS
  GM-CSF (raw data, single replicate): <3.2 pg/mL
  IL-1β (raw data, single replicate): 0.01381 pg/mL and 0.1227 pg/mL and 0.2344 pg/mL and 0.4044 pg/mL
  IL-6 (raw data, single replicate): <3.2 pg/mL
  IL-8 (average result): 294 pg/mL
  IL-8 (raw data, single replicate): 254.6 pg/mL and 237.5 pg/mL and 296.9 pg/mL and 386.9 pg/mL
  TNF-α (average result): 1.616 pg/mL
  TNFα (raw data, single replicate): 1.244 pg/mL and 1.675 pg/mL and 1.373 pg/mL and 2.173 pg/mL
HEK-TLR4 cells; [4]
  GM-CSF (raw data, single replicate): <3.2 pg/mL
  IL-1β (raw data, single replicate): 0.6335 pg/ml and 0.1227 pg/ml (2×) and 0.2344 pg/ml
  IL-6 (raw data, single replicate): <3.2 pg/mL
  IL-8 (average result): 326.3 pg/mL
  IL-8 (raw data, single replicate): 447.3 pg/mL and 287.8 pg/mL and 291.5 pg/mL and 278.6 pg/mL
  TNF-α (average result): 1.596 pg/mL
  TNFα (raw data, single replicate): 2.587 pg/mL and 1.416 pg/mL and 1.266 pg/mL and 1.116 pg/mL
HEK-TLR4 cells; 600 ppm, without LPS
  GM-CSF (raw data, single replicate): 0.1483 pg/ml and 0.07253 pg/ml and <3.2 pg/ml (2×)
  IL-1β (raw data, single replicate): 0.9228 pg/mL and 0.2908 pg/mL and 0.01381 pg/mL and 0.1227 pg/mL
  IL-6 (raw data, single replicate): 0.3248 pg/ml and <3.2 pg/ml (3×)
  IL-8 (average result): 293.9 pg/mL
  IL-8 (raw data, single replicate): 434.5 pg/mL and 262.1 pg/mL and 234.6 pg/mL and 244.6 pg/mL
  TNF-α (average result): 1.172 pg/mL
  TNFα (raw data, single replicate): 2.064 pg/mL and 1.073 pg/mL and 0.6069 pg/mL and 0.9454 pg/mL
HEK-TLR4 cells; P. gingivalis LPS, 300 and 600 ppm, listed as Zinc citrate
  effect on LPS-induced TNFα (in words): more profound inhibition
HEK-TLR4 cells; [5]
  effect on LPS-induced TNFα (in words): significantly reduced
  effect on induction of IL-8 by LPS (in words): significantly reduced; also recorded: profound inhibition
HEK-Blue hTLR4 cells [1]; [6]
  IL-8 Concentration, Average: 32.1 pg/mL
  IL-8 Concentration, replicate: 35.4 pg/mL and 28.9 pg/mL
HEK-Blue hTLR4 cells [1]; [7]
  IL-8 Concentration, Average: 38.0 pg/mL
  IL-8 Concentration, replicate: 38.1 pg/mL and 37.9 pg/mL
HEK-Blue hTLR4 cells [1]; [8]
  IL-8 Concentration, Average: 51.9 pg/mL
  IL-8 Concentration, replicate: 55.6 pg/mL and 48.1 pg/mL
HEK-Blue hTLR4 cells [1]; [9]
  IL-8 Concentration, Average: 86.6 pg/mL
  IL-8 Concentration, replicate: 88.5 pg/mL and 84.8 pg/mL
HEK-Blue hTLR4 cells [2]; [10]
  IL-8 Concentration, Average: 34.9 pg/mL
  IL-8 Concentration, replicate: 55.35 pg/mL and 27.95 pg/mL and 26.65 pg/mL and 29.55 pg/mL
HEK-Blue hTLR4 cells [2]; [11]
  IL-8 Concentration, Average: 10.6 pg/mL
  IL-8 Concentration, replicate: 11.85 pg/ml (2×) and 3.15 pg/ml
HEK-Blue hTLR4 cells [2]; at both 1 mM and 10 mM
  IL-8 induced by co-incubation with P.g. LPS (in words): reduced
